Results as given in paper PMC5457512, “Structural basis for perception of diverse chemical substances by T1r taste receptors” (Nature Communications, 2017).
Like-named read-outs stand apart in the source and are kept apart here.

B1: Fab16A, Fab fragment of the anti-T1r2a-3LBD monoclonal antibody clone 16A (Fab, V domains shown)
VH: EVQLQQSGPELVKPGASMKISCKASGYSFTGYSMNWVKQSHGKNLEWIGLINPYNGDTTYKQKFKGKATLTVDRSSSTAYMELLRLTSEDSAVYYCARSGRGAPTTTTAWFTYWGQGTLVTVSA
VL: DIVLTQSPASLAVSLGQRATISCRASESVDSYGNSFMHWYQQKPGQPPILLISRASNLESGIPARFSGSGSRTDFTLTINPVEADDFATYYCQQTNEDPRTFGGGTKLEIK
notes: Parent antibody is mouse IgG1:kappa; Fab made by papain digestion; also called anti-T1r2a-3LBD mAb clone 16A; source: mouse hybridoma (Mikuri Immunological Lab. Co.); IgG digested with Immobilized-Papain, purified (Protein A Sepharose, Mono S)

Key:
[1] = target: T1r2a–T1r3LBD heterodimer (Oryzias latipes, UniProt A0A173M094+A0A173M0G2); assay: FRET signal change of T1r2aLBD-Cerulean and T1r3LBD-Venus heterodimer on amino acid binding; conditions: for FRET signal elevation of fluorescence-labelled LBDs: qualitative
Procedure: The conformational change of T1r2a–T1r3LBD on ligand binding was analysed by Förster resonance energy transfer (FRET) measurement. The heterodimer of the T1r2aLBD (M1-S474)—Celurean fusion protein (T1r2aL-Ce) and the T1r3LBD (M1-S491)—Venus fusion protein (T1r3L-Ve) was stably expressed by S2 cells (Invitrogen) and purified by ANTI-FLAG M2 affinity gel (SIGMA) by use of the FLAG-tag at their C termini, as previously described[22]. […] The titration curves were fitted to the Hill equation by using KaleidaGraph (Synergy Software).
Therefore, at least two independent measurements were performed in this study, except for the inset in Fig. 2a with a single analysis.

[2] = target: full-length T1r2a–T1r3 receptor (Oryzias latipes, UniProt A0A173M094+A0A173M0G2); assay: Ca2+ flux assay of full-length receptor in HEK293 (Flip-In 293) cells; assay type: cell-based, medaka fish (Oryzias latipes); conditions: for Response of the full-length receptor according to Ca2+-imaging: qualitative, tested up to 10 mM
Procedure: (§1) The Ca^2+ flux assays were performed using a FLEX station 3 (Molecular Devices, LLC) for the cells loaded with 100 μl of Hank's balanced salt solution (Sigma-Aldrich), containing 5 μM of the calcium indicator dye Fluo8 NW (AAT Bioquest). The stimulation was performed by adding 25 μl of 5 × concentrated solutions of taste substances, using a pipette. The intensity of the response was represented as ΔRFU (delta relative fluorescence unit) defined as maximum fluorescence value for the taste substances minus that for the Hank's Balanced Salt Solution, and was plotted versus the ligand concentration. The concentration-response curves were fitted to the Hill equation, using SigmaPlot software (Systat Software).

T1r2a–T1r3:S300E mutant = target: T1, T1r2a–T1r3:S300E mutant (Oryzias latipes, UniProt A0A173M0G2); assay: cell-based; set-up: species or system medaka fish (Oryzias latipes)
T1 sequence (A0A173M0G2 12-802): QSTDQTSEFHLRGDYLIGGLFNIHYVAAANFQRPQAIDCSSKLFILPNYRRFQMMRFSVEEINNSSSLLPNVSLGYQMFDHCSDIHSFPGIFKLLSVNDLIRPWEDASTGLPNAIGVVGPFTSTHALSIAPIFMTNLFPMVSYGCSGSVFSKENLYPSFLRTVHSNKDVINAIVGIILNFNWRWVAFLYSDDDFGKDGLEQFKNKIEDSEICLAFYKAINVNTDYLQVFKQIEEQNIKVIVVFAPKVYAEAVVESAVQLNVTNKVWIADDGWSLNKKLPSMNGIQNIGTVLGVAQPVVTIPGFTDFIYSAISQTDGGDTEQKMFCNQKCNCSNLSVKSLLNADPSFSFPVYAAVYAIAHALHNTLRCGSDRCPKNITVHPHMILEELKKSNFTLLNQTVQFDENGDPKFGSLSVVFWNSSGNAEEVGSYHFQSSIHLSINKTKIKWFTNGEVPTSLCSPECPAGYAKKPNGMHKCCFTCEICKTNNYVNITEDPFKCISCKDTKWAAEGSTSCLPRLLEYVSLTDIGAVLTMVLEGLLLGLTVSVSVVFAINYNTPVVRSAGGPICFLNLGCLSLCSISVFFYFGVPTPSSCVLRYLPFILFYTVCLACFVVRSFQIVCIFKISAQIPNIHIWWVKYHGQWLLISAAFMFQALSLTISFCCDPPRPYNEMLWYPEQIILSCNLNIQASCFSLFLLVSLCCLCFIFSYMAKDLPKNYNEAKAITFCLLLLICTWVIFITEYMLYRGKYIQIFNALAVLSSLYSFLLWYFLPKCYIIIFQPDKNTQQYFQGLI
T1 sequence (A0A173M094 12-836 partner): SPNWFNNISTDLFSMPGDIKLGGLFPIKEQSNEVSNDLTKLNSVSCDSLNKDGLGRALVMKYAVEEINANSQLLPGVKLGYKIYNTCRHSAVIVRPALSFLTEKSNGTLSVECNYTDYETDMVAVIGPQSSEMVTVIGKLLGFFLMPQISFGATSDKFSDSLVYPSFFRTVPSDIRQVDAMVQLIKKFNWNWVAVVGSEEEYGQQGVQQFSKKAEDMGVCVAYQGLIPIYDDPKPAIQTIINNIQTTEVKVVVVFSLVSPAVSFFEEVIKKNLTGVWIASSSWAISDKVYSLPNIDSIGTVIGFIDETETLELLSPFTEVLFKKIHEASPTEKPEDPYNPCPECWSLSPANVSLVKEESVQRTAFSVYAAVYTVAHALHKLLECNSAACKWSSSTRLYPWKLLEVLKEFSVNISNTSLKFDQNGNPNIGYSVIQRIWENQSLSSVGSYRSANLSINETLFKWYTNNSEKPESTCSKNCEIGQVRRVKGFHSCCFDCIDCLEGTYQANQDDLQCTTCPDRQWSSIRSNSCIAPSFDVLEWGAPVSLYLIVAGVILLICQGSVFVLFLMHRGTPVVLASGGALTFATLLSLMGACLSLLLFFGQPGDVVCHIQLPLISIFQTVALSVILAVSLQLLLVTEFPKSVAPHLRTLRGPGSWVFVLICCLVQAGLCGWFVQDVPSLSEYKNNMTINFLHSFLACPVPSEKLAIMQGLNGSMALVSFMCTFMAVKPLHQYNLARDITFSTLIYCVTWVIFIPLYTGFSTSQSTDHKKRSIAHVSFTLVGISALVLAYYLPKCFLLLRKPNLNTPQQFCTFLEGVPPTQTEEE
Procedure: as §1
Mutations were introduced using QuikChange (Agilent Technologies) or PrimeStarMax (TAKARA BIO, only for T1r2a:S165I) with primers summarized in Supplementary Table 3.

[3] = cited from earlier work; for Hydropathy index: ref Handbook of Chemistry and Physics, CRC Press; for pI: ref Kyte & Doolittle, J. Mol. Biol., 157, 105-132, 1982; for Volume: ref Tsai et al. J. Mol. Biol., 290, 253-266,1999
human T1r1–T1r3 = system: human T1r1–T1r3; set-up: method as in PMID 24214976; conditions: cited from earlier work
[4] = target: T2, T1r2a-T1r3LBD heterodimer, medaka fish (Oryzias latipes (medaka fish), UniProt A0A173M0G2;A0A173M094, glycosyl chains trimmed to single N-acetylglucosamine residues by Endo H | glycosyl chains trimmed to single N-acetylglucosamine residues by Endo H); assay: crystal structure; T1r2a-3LBD heterodimer co-crystallised with Fab16A, with bound L-Gln, L-Ala, L-Arg, L-Glu or Gly; sitting-drop vapor diffusion with microseeding, PEG 1500, PEG400, 0.1 M MES pH 6.0, 293 K; conditions: both partners purified
T2 construct: signal peptide in the construct; The two chains are joined by an intermolecular disulfide bridge, Cys344 (T1r2a) to Cys132 (T1r3); also called T1r2a-3LBD; T1r2aLBD-T1r3LBD heterodimer; source: S2 cells, stably co-expressed (5 uM kifunensine), from culture medium, purified (ANTI-FLAG M2, factor Xa, Endo H, SEC); not shown: FLAG, C-terminal, cleaved; copies: 1 + 1

[5] = fitted parameter ± s.e. of Hill equation, Fig. 2b, intracellular Ca2+ elevation, HEK293, read-out: EC50 Receptor responses, T1r2a wt T1r3 wt
[6] = fitted parameter ± s.e. of Hill equation, intracellular Ca2+ elevation, HEK293, read-out: EC50 Receptor responses, T1r2a wt T1r3 S300E

Row | Molecule | Response of the full-length receptor according to Ca2+-imaging ([2]; Fig. 2b) | FRET signal elevation of fluorescence-labelled LBDs ([1]; Fig. 2a) | Hydropathy index [3] | pI [3] | Volume [3] [Å3] | EC50 [1] [µM] | further results
1 | NC(=O)CCC(N)C(=O)O (stereo in doubt) [D-glutamine] | – | – | – | – | – | – | FRET signal elevation of fluorescence-labelled LBDs, L- versus D-glutamine comparison ([1]; Fig. 2a inset, 283 K, single analysis): but not D-glutamine, induced FRET signal elevation
2 | NCC(=O)O [Glycine] | poor or no significant receptor responses | induced FRET signal elevation | – | – | – | – | EC50 ([1]; read-out: EC50 FRET changes of LBD, T1r2aLBD wt T1r3LBD wt, fitted parameter ± s.e. of Hill equation, Fig. 2a, room temperature): 6180 ± 3320 µM
3 | C[C@H](N)C(=O)O [L-Alanine] | induced responses | induced FRET signal elevation | 1.8 | 6.00 | 90.0 | 141 ± 37 | EC50 [2, 5]: 2460 ± 2670 µM; EC50 (T1r2a–T1r3:S300E mutant; [6]): 1800 ± 300 µM
4 | N=C(N)NCCC[C@H](N)C(=O)O [L-Arginine] | induced responses | induced FRET signal elevation | -4.5 | 10.76 | 194.0 | 190 ± 35 | EC50 [2]: 470 ± 297 µM; EC50 (T1r2a–T1r3:S300E mutant): 1300 ± 100 µM
5 | N[C@@H](CCC(=O)O)C(=O)O [L-Glutamate] | poor or no significant receptor responses | induced FRET signal elevation | -3.5 | 3.22 | 142.2 | 1070 ± 382 | EC50 (human T1r1–T1r3): ~2700 µM; Maximum FRET change at saturating concentrations ([1]; compared with glutamine, Fig. 2a): larger changes
6 | NC(=O)CC[C@H](N)C(=O)O [L-Glutamine] | induced responses | induced FRET signal elevation | – | – | – | 11.5 ± 3.4 | EC50 [2, 5]: 70 ± 8 µM; EC50 (T1r2a–T1r3:S300E mutant; [6]): 200 ± 19 µM
7 | B1 | – | – | – | – | – | – | binding result [4]: binds
